The subject of data set [1] is primary DRG sensory neurons. Format: cell-based, rat. Particulars: for relative neurotoxicity (potency in inhibiting neuritic outgrowth): comparison between NRTIs.
Data set [2] concerns primary DRG sensory neurons. Briefly: Neuronal mitochondrial toxicity assay (JC-1 red:green fluorescence in TTC-labeled neurons). Particulars: 4 hours; NRTIs 1-100 μM, FCCP 25 μM.
The subject of data set [3] is primary DRG sensory neurons. Format: cell-based.
In data set [4] the test system is Schwann cells.
Data set [5] deals with primary DRG sensory neurons. The settings on record: rat, 4 h.
Data set [6] concerns Schwann cells. Kind of data set: Cell death in Schwann cells of the co-cultures. It is filed as cell-based, rat. Particulars: ddC dose of 1 mM (data not shown).
Where [7] appears, read: NRTI 1-100 μM added at 3 hours, 15 hours of further incubation.

Turning to `Cc1cn([C@H]2C[C@H](N=[N+]=[N-])[C@@H](CO)O2)c(=O)[nH]c1=O` [AZT, zidovudine], the “effect on neuritic morphology” value in data set [1] (setting [7]) is reported as “did not have any appreciable effect on neuritic morphology, even at high doses”. Further, in data set [1], the “relative neurotoxicity (potency in inhibiting neuritic outgrowth)” value is listed as “did not exert significant neurotoxicity”.

For the compound `N#CC(C#N)=NNc1ccc(OC(F)(F)F)cc1` [FCCP], the “JC-1 red:green luminosity ratio (mitochondrial membrane potential differential)” value in data set [2] was “loss of mitochondrial membrane potential”.

In the case of `C=CC[C@@H]1/C=C(\C)C[C@H](C)C[C@H](OC)[C@H]2O[C@@](O)(C(=O)C(=O)N3CCCC[C@H]3C(=O)O[C@H](/C(C)=C/[C@@H]3CC[C@@H](O)[C@H](OC)C3)[C@H](C)[C@@H](O)CC1=O)[C@H](C)C[C@@H]2OC` [FK506], in data set [3] (ddC 10 μM, 18 hours), the “concentrations at which prevention of neuronal cell death was most prominent” value was 10 to 100 nM.

Regarding `Nc1ccn([C@H]2CC[C@@H](CO)O2)c(=O)n1` [ddC, 2′,3′-dideoxycytidine], in the data set with Schwann cells [4], the “mitochondrial depolarization in Schwann cells” value is reported as “no evidence of mitochondrial depolarization”. In data set [5], the “concentration achieving the same level of mitochondrial membrane depolarization as (25 μM) FCCP” value worked out at 1000 nM. The “cell death in Schwann cells” value with Schwann cells [6] is “no cell death”. In addition, in data set [1] (setting [7]), the “effect on neuritic morphology” value is reported as “frank neuritic degeneration was also seen”; the “total neuritic length and number of neurites per neuron” value is given as “dose-dependent reduction”. Besides, the “relative neurotoxicity (potency in inhibiting neuritic outgrowth)” value in data set [1] is listed as “most neurotoxic”. The “TUNEL staining of neurons (marker of apoptosis)” value in data set [3] (ddC 10 μM, 18 hours (data not shown)) is reported as “lack of DNA laddering”. Moreover, in data set [3] (exposure for 18 hours, varying doses), the “neuronal cell death (percentage of neurons labeling with live-cell marker)” value is recorded as “higher doses of ddC were associated with a lower percentage of neurons labeling with the “live-cell” marker”.

As to `O=c1[nH]cnc2c1ncn2[C@H]1CC[C@@H](CO)O1` [ddl, didanosine], in data set [5], the “concentration achieving the same level of mitochondrial membrane depolarization as (25 μM) FCCP” value is 1000 nM.

(Values after patent publication US20050131029A1, “Immunophilin ligand treatment of antiretroviral toxic neuropathy” (priority 2003, published 2005).)
